± gives the expanded uncertainty stated by the source.
What was measured:
[1] = 101 kPa, Liquid; for speed of sound: Sing-around technique in a fixed-path interferometer
[2] = refractive index (Na D-line) (dimensionless); conditions: 101.33 kPa, Liquid
[3] = refractive index (Na D-line) (dimensionless); xn = mol fraction of the nth substance listed; conditions: 101 kPa, Liquid
[4] = xn = mol fraction of the nth substance listed; conditions: 101 kPa, Liquid; for speed of sound: Sing-around technique in a fixed-path interferometer

CCCCC(CC)CO (centres undefined) [2-ethyl-1-hexanol]
Conditions | mass density, [1] [kg/m3] | refractive index, [2] | speed of sound, [1] [m/s] | viscosity, [1] [mPa·s]
298.15 K | 829.07 ± 0.82 | 1.4287 ± 0.0019 | 1319 ± 10 | 8.418 ± 0.65
303.15 K | 825.39 ± 0.83 | 1.4266 ± 0.0019 | 1301 ± 10 | 7.144 ± 0.57
308.15 K | 821.68 ± 0.84 | 1.4245 ± 0.0019 | 1283 ± 10 | 6.09 ± 0.5

CCCCC(CC)CO (centres undefined) [2-ethyl-1-hexanol] + Brc1ccccc1
x2 = 0
Conditions | mass density, [4] [kg/m3] | refractive index, [3] | speed of sound, [4] [m/s] | viscosity, [4] [mPa·s]
298.15 K | 829.07 ± 0.82 | 1.4287 ± 0.0019 | 1319 ± 10 | 8.418 ± 0.65
303.15 K | 825.39 ± 0.83 | 1.4266 ± 0.0019 | 1301 ± 10 | 7.144 ± 0.57
308.15 K | 821.68 ± 0.84 | 1.4245 ± 0.0019 | 1283 ± 10 | 6.09 ± 0.5

c1ccccc1 [benzene]
Conditions | mass density, [1] [kg/m3] | refractive index, [2] | speed of sound, [1] [m/s] | viscosity, [1] [mPa·s]
298.15 K | 873.66 ± 0.66 | 1.4969 ± 0.0019 | 1299 ± 10 | 0.603 ± 0.065
303.15 K | 868.29 ± 0.68 | 1.4949 ± 0.0019 | 1276 ± 10 | 0.557 ± 0.061
308.15 K | 862.92 ± 0.69 | 1.4929 ± 0.0019 | 1253 ± 10 | 0.533 ± 0.059

c1ccccc1 [benzene] + CCCCC(CC)CO
x1 = 1
Conditions | mass density, [4] [kg/m3] | refractive index, [3] | speed of sound, [4] [m/s] | viscosity, [4] [mPa·s]
298.15 K | 873.66 ± 0.66 | 1.4969 ± 0.0019 | 1299 ± 10 | 0.603 ± 0.065
303.15 K | 868.29 ± 0.68 | 1.4949 ± 0.0019 | 1276 ± 10 | 0.557 ± 0.061
308.15 K | 862.92 ± 0.69 | 1.4929 ± 0.0019 | 1253 ± 10 | 0.533 ± 0.059

Brc1ccccc1 [bromobenzene]
Conditions | mass density, [1] [kg/m3] | refractive index, [2] | speed of sound, [1] [m/s] | viscosity, [1] [mPa·s]
298.15 K | 1488.12 ± 2.2 | 1.557 ± 0.0019 | 1153 ± 10 | 1.065 ± 0.1
303.15 K | 1481.4 ± 2.2 | 1.555 ± 0.0019 | 1138 ± 10 | 1.005 ± 0.099
308.15 K | 1474.58 ± 2.2 | 1.553 ± 0.0019 | 1122 ± 10 | 0.972 ± 0.096

Clc1ccccc1 [chlorobenzene]
Conditions | mass density, [1] [kg/m3] | refractive index, [2] | speed of sound, [1] [m/s] | viscosity, [1] [mPa·s]
298.15 K | 1101.03 ± 1.1 | 1.524 ± 0.002 | 1268 ± 10 | 0.767 ± 0.079
303.15 K | 1095.52 ± 1.1 | 1.521 ± 0.002 | 1249 ± 10 | 0.716 ± 0.074
308.15 K | 1090.2 ± 1.1 | 1.518 ± 0.002 | 1231 ± 10 | 0.66 ± 0.069

Clc1ccccc1 [chlorobenzene] + CCCCC(CC)CO
x1 = 1
Conditions | mass density, [4] [kg/m3] | refractive index, [3] | speed of sound, [4] [m/s] | viscosity, [4] [mPa·s]
298.15 K | 1101.03 ± 1.1 | 1.524 ± 0.002 | 1268 ± 10 | 0.767 ± 0.079
303.15 K | 1095.52 ± 1.1 | 1.521 ± 0.002 | 1249 ± 10 | 0.716 ± 0.074
308.15 K | 1090.2 ± 1.1 | 1.518 ± 0.002 | 1231 ± 10 | 0.66 ± 0.069
